We go through two compounds from ChEMBL document CHEMBL2163212, “Antivirals targeting influenza A virus” (J Med Chem, 2012).

The assay has as its system Influenza A virus. Description: Antiviral activity against Influenza A virus assessed as inhibition of cap dependent viral transcription. The format is functional, organism-based.

Usually IC50 stands for the concentration that inhibits the measured activity by half. Turning to `O=C(O)/C(O)=C/C(=O)C1(Cc2ccc(Cl)cc2)CCN(Cc2ccccc2)CC1`, the IC50 is 1000 nM.

For the compound `O=C(O)/C(O)=C/C(=O)C1(Cc2ccc(Cl)cc2)CCCN(Cc2ccccc2)C1` (configuration not stated), the IC50 was 1000 nM.
